Test [1] deals with HeLa cells, surface GLUT1. Kind of test: Surface biotinylation, cell surface level of GLUT1. Format: cell-based. The protocol:
(§1) For western blotting, cells were lysed in PBS with 1% (v/v) Triton X-100 and protease inhibitor cocktail. The protein concentration was determined with a BCA assay kit (Thermo Fisher Scientific, USA), and equal amounts were resolved on NuPAGE 4% to 12% precast gels (Invitrogen, USA). Blotting was performed onto polyvinylidene fluoride membranes (Immobilon-FL; EMD Millipore, USA) followed by detection using the Odyssey infrared scanning system (LI-COR Biosciences, USA). For GFP-based immunoprecipitations, HEK-293T cells were lysed 48 hours after transfection in immunoprecipitation buffer (50 mM Tris-HCl, 0.5% (v/v) NP-40, and Roche protease inhibitor cocktail) and subjected to GFP trap (ChromoTek, Germany). Immunoblotting was performed using standard procedures. Detection was performed on an Odyssey infrared scanning system (LI-COR Biosciences) using fluorescently labeled secondary antibodies. In using the Odyssey, we routinely performed western blot analysis where a single blot is simultaneously probed with antibodies against 2 proteins of interest (distinct antibody species) followed by visualization with the corresponding secondary antibodies conjugated to distinct spectral dyes.
(§2) For surface biotinylation experiments, fresh Sulfo-NHS-SS Biotin (Thermo Fisher Scientific, #21217) was dissolved in ice-cold PBS at pH 7.8 at a final concentration of 0.2 mg/ml. Cells were washed twice in ice-cold PBS and placed on ice to slow down the endocytic pathway. Next, cells were incubated with the biotinylation reagent for 30 minutes at 4°C followed by incubation in TBS for 10 minutes to quench the unbound biotin. The cells were then lysed in lysis buffer and subjected to Streptavidin beads-based affinity isolation (GE Healthcare, USA).

Test [2] deals with HeLa cells, surface ITGA5. Kind of test: Surface biotinylation, cell surface level of ITGA5. Type of test: cell-based. The method, then: as §1, §2
Another test has as its target T1, hSNX27FL R498D (Homo sapiens, UniProt Q96L92, R498D).
T1 construct: FL, full-length; ITC, isothermal titration calorimetry; His-tag followed by a TEV cleavage site (N); made in house; host or cells: E. coli BL21 (DE3)
Kind of test: ITC, hSNX1 peptide 75-92 against hSNX27FL R498D. Format: binding. The following applies: 25°C, 600 μM SNX1_75-92 into 20 μM hSNX27FL R498D. From the text: (§3) For bacterial expression, full-length mouse SNX1 with an amino-terminal His-tag (mSNX1FL hereafter) was cloned into the pMW172Kan vector [75], and the truncated mSNX1 construct containing residues 1 to 139 was cloned into pGEX4T-2 vector for expression as a thrombin-cleavable amino-terminal GST fusion protein. DNA encoding full-length mouse SNX27 (mSNX27FL hereafter) was inserted into the pMCSG7 vector [76] by the ligation-independent cloning (LIC) approach. Human SNX27 constructs, hSNX27FL, hSNX27FERM, and hSNX27FL single-site mutants R437D, K495D, K496D, R498D, and K501D were cloned into the pET-28a vector by GenScript and codon optimized for bacterial protein expression. An additional TEV cleavage site was inserted between the amino-terminal His-tag and hSNX27 coding sequences.
(§4) All microcalorimetry experiments were conducted at 25°C using a PEAQ ITC (Malvern, UK) in 50 mM HEPES (pH 7.5), 200 mM NaCl, 5% glycerol, and 1 mM β-ME (ITC buffer). […]
(§5) The ITC experiments were conducted with 1 injection of 0.4 μL followed by a series of 12 injections of 3.2 μL each with 180-second intervals and a stirring speed of 850 rpm. […] Data were analyzed with Malvern software package by fitting and normalized data to a single-site binding model, yielding the thermodynamic parameters Kd, ΔH, ΔG, and −TΔS for all binding experiments. […]
On the technique in general: ITC needs no label: the signal is the heat of the interaction.

For the next test, the target named is T2, hSNX27FL K501D (Homo sapiens, UniProt Q96L92, K501D).
T2 construct: FL, full-length; ITC, isothermal titration calorimetry; His-tag followed by a TEV cleavage site (N); made in house; host or cells: E. coli BL21 (DE3)
Kind of test: ITC, hSNX1 peptide 75-92 against hSNX27FL K501D. Type of test: binding. The following applies: 25°C, 600 μM SNX1_75-92 into 20 μM hSNX27FL K501D.
Text: as §3, §4, §5

Another test addresses T3, hSNX27FL K495D (Homo sapiens, UniProt Q96L92, K495D).
T3 construct: FL, full-length; ITC, isothermal titration calorimetry; His-tag followed by a TEV cleavage site (N); made in house; host or cells: E. coli BL21 (DE3)
Kind of test: ITC, hSNX1 peptide 75-92 against hSNX27FL K495D. Type of test: binding. The following applies: 25°C, 600 μM SNX1_75-92 into 20 μM hSNX27FL K495D.
Text: as §3, §4, §5

Test [3] deals with T4, mSNX27FL preincubated with competing peptide (Mus musculus, UniProt Q3UHD6).
T4 construct: DNA encoding full-length mouse SNX27 (mSNX27FL hereafter) was inserted into the pMCSG7 vector; made in house; host or cells: Escherichia coli BL21 CodonPlus (DE3)
Kind of test: Competitive ITC of hSNX2 16-33 and hSNX1 75-92 with mSNX27FL. Type of test: binding. The following applies: 25°C. The method, then:
All microcalorimetry experiments were conducted at 25°C using a PEAQ ITC (Malvern, UK) in 50 mM HEPES (pH 7.5), 200 mM NaCl, 5% glycerol, and 1 mM β-ME (ITC buffer). All proteins were purified by SEC using the same buffer prior to ITC experiments to avoid buffer mismatches. To measure binding of SNX27 to SNX1 proteins, 800 μM of hSNX27FERM was titrated into 20 μM of GST-mSNX1_1-139 or His-SNX1FL. For the binding of SNX1 and SNX2 peptides to SNX27, peptides were diluted 10-fold to 800 μM in ITC buffer peptides and titrated into 20 μM SNX27FL proteins containing the same 1:10 ratio of peptide buffer (100 mM Tris-HCl, pH 10.6). […] For ITC experiment using SNX1_75-92 against hSNX27 wild-type and single-site mutants, 600 μM SNX1_75-92 peptide was titrated into 20 μM hSNX27 proteins.
The ITC experiments were conducted with 1 injection of 0.4 μL followed by a series of 12 injections of 3.2 μL each with 180-second intervals and a stirring speed of 850 rpm. The heat exchange of interactions was obtained through integrating the observed peaks and background correction by subtracting the heats of dilution. Data were analyzed with Malvern software package by fitting and normalized data to a single-site binding model, yielding the thermodynamic parameters Kd, ΔH, ΔG, and −TΔS for all binding experiments. […]

Setting [4] is: relative to HeLa = 100, mean of n = 3, Fig. 6D.
The mark [5] stands for this setting: relative to HeLa = 100, replicate n1, Fig. 6D.
[6] abbreviates: relative to HeLa = 100, replicate n2, Fig. 6D.
[7] abbreviates: relative to HeLa = 100, replicate n3, Fig. 6D.

The values below come from publication PMC9038204, “SNX27–Retromer directly binds ESCPE-1 to transfer cargo proteins during endosomal recycling” (PLoS Biology, 2022).

Where no end group is shown, it is not given here.

For the substance +GFP-SNX1, in test [1] (setting [4]), the “cell surface GLUT1, Mean 2” value is reported as 89.92. In addition, the “cell surface GLUT1” value in test [1] (setting [5]) is recorded as 81.0353; in test [1] (setting [6]), 95.6847; in test [1] (setting [7]), 93.0328. Besides, the “cell surface ITGa5, Mean 2” value in test [2] (setting [4]) came to 94.91. The “cell surface ITGa5” value turned out to be 92.6175 in test [2] (setting [5]), 101.027 in test [2] (setting [6]) and 91.0806 in test [2] (setting [7]).
As to NGIHEEQDQEPQDLFADA [SNX1_75-92], the Kd entry is recorded as “no detectable binding” at hSNX27FL R498D; “No binding detected” on hSNX27FL R498D (listed as hSNX175-92); “no detectable binding” at hSNX27FL K501D; “No binding detected” on hSNX27FL K501D (listed as hSNX175-92); “no detectable binding” on hSNX27FL K495D; “No binding detected” on hSNX27FL K495D (listed as hSNX175-92).
With TDFEDLEDGEDLFTSTVS [SNX2_16-33], the Kd entry in test [3] (hSNX2 16-33 titrated into mSNX27FL preincubated with 2-fold molar excess hSNX1 75-92) is “binding is blocked”; in test [3] (hSNX2 16-33 titrated into mSNX27FL preincubated with 2-fold molar excess hSNX1 75-92, listed as hSNX216-33), “No binding detected”.
